Assay results taken from ChEMBL document CHEMBL3044635, “Effect of propiconazole and difenoconazole on the control of anthracnose of chilli fruits caused by Colletotrichum capsici” (Crop Prot, 2006).
Values after ≈ are worked out from the molar mass of the structure shown.

Assays:
[1] = system: Colletotrichum truncatum; assay: Fungicidal activity against Colletotrichum capsici assessed as reduction of pectin trans-eliminase production at 1 ug/ml incubated for 10 days measured up to 120 min by Ostwald-Fenske viscometric analysis (reference value: 38.5%); assay type: functional; design: scale not given: the % may be the effect or the level left
[2] = system: Colletotrichum truncatum; assay: Fungicidal activity against Colletotrichum capsici assessed as reduction of polygalacturonase production at 1 ug/ml incubated for 10 days measured up to 120 min by Ostwald-Fenske viscometric analysis (reference value: 45.3%); assay type: functional; design: scale not given: the % may be the effect or the level left
[3] = system: Colletotrichum truncatum; assay: Fungicidal activity against Colletotrichum capsici assessed as inhibition of mycelial growth; assay type: functional; settings: Colletotrichum truncatum; read-out: ED50 (the source's name)
[4] = system: Colletotrichum truncatum; assay: Fungicidal activity against Colletotrichum capsici assessed as sporulation at 50 ug/ml incubated 16 hr photoperiod for 20 days by haemocytometer (reference value: 0.081 x 10^6 ml'-1); assay type: functional
[5] = system: Colletotrichum truncatum; assay: Fungicidal activity against Colletotrichum capsici assessed as sporulation at 10 ug/ml incubated 16 hr photoperiod for 20 days by haemocytometer (reference value: 0.081 x 10^6 ml'-1); assay type: functional
[6] = system: Colletotrichum truncatum; assay: Fungicidal activity against Colletotrichum capsici assessed as sporulation at 5 ug/ml incubated 16 hr photoperiod for 20 days by haemocytometer (reference value: 0.081 x 10^6 ml'-1); assay type: functional
[7] = system: Colletotrichum truncatum; assay: Fungicidal activity against Colletotrichum capsici assessed as sporulation at 1 ug/ml incubated 16 hr photoperiod for 20 days by haemocytometer (reference value: 0.081 x 10^6 ml'-1); assay type: functional
[8] = system: Colletotrichum truncatum; assay: Fungicidal activity against Colletotrichum capsici assessed as sporulation at 0.5 ug/ml incubated 16 hr photoperiod for 20 days by haemocytometer (reference value: 0.081 x 10^6 ml'-1); assay type: functional
[9] = system: Colletotrichum truncatum; assay: Fungicidal activity against Colletotrichum capsici assessed as sporulation at 0.1 ug/ml incubated 16 hr photoperiod for 20 days by haemocytometer (reference value: 0.081 x 10^6 ml'-1); assay type: functional
[10] = system: Colletotrichum truncatum; assay: Fungicidal activity against Colletotrichum capsici assessed as spore germination at 50 ug/ml after 48 to 96 hr (reference value: 70.2 CFU); assay type: functional
[11] = system: Colletotrichum truncatum; assay: Fungicidal activity against Colletotrichum capsici assessed as spore germination at 10 ug/ml after 48 to 96 hr (reference value: 70.2 CFU); assay type: functional
[12] = system: Colletotrichum truncatum; assay: Fungicidal activity against Colletotrichum capsici assessed as spore germination at 1 ug/ml after 48 to 96 hr (reference value: 70.2 CFU); assay type: functional
[13] = system: Colletotrichum truncatum; assay: Fungicidal activity against Colletotrichum capsici assessed as inhibition of spore germination at 0.1 ug/ml after 48 to 96 hr relative to control; assay type: functional
[14] = system: Colletotrichum truncatum; assay: Fungicidal activity against Colletotrichum capsici assessed as mycelial biomass at 25 ug/ml incubated 16 hr photoperiod for 20 days (reference value: 675 mg); assay type: functional
[15] = system: Colletotrichum truncatum; assay: Fungicidal activity against Colletotrichum capsici assessed as mycelial biomass at 50 ug/ml incubated 16 hr photoperiod for 20 days (reference value: 675 mg); assay type: functional
[16] = system: Colletotrichum truncatum; assay: Fungicidal activity against Colletotrichum capsici assessed as mycelial biomass at 1 ug/ml incubated 16 hr photoperiod for 20 days (reference value: 675 mg); assay type: functional
[17] = system: Colletotrichum truncatum; assay: Fungicidal activity against Colletotrichum capsici assessed as mycelial biomass at 0.5 ug/ml incubated 16 hr photoperiod for 20 days (reference value: 675 mg); assay type: functional
[18] = system: Colletotrichum truncatum; assay: Fungicidal activity against Colletotrichum capsici assessed as mycelial biomass at 0.1 ug/ml incubated 16 hr photoperiod for 20 days (reference value: 675 mg); assay type: functional
[19] = system: Colletotrichum truncatum; assay: Fungicidal activity against Colletotrichum capsici assessed as linear growth at 50 ug/ml incubated 16 hr photoperiod for 20 days (reference value: 90 mm); assay type: functional
[20] = system: Colletotrichum truncatum; assay: Fungicidal activity against Colletotrichum capsici assessed as linear growth at 25 ug/ml incubated 16 hr photoperiod for 20 days (reference value: 90 mm); assay type: functional
[21] = system: Colletotrichum truncatum; assay: Fungicidal activity against Colletotrichum capsici assessed as linear growth at 5 ug/ml incubated 16 hr photoperiod for 20 days (reference value: 90 mm); assay type: functional
[22] = system: Colletotrichum truncatum; assay: Fungicidal activity against Colletotrichum capsici assessed as linear growth at 10 ug/ml incubated 16 hr photoperiod for 20 days (reference value: 90 mm); assay type: functional
[23] = system: Colletotrichum truncatum; assay: Fungicidal activity against Colletotrichum capsici assessed as linear growth at 0.5 ug/ml incubated 16 hr photoperiod for 20 days (reference value: 90 mm); assay type: functional
[24] = system: Colletotrichum truncatum; assay: Fungicidal activity against Colletotrichum capsici infected chilli plant assessed as fruit length at 0.025% applied as spray on day 10 post inoculation and twice every 20 days measured on day 155 post sowing in green house conditions (reference value: 6.8 to 7 cm); assay type: functional
[25] = system: Colletotrichum truncatum; assay: Fungicidal activity against Colletotrichum capsici infected chilli plant assessed as fruit length at 0.05% applied as spray on day 10 post inoculation and twice every 20 days measured on day 155 post sowing in green house conditions (reference value: 6.8 to 7 cm); assay type: functional
[26] = system: Capsicum annuum; assay: Phytotoxicity in Capsicum annuum (pepper) at 0.1% applied as spray; assay type: organism-based; settings: in vivo, other
[27] = system: Colletotrichum truncatum; assay: Fungicidal activity against Colletotrichum capsici infected chilli plant assessed as fruit mass measured per pot at 0.05% applied as spray on day 10 post inoculation and twice every 20 days measured on day 155 post sowing in green house conditions (reference value: 85.3 to 94.5 g); assay type: functional
[28] = system: Colletotrichum truncatum; assay: Fungicidal activity against Colletotrichum capsici infected chilli plant assessed as percent disease index at 0.025% applied as spray on day 10 post inoculation and twice every 20 days measured on day 155 post sowing in green house conditions (reference value: 62.5 to 68.6%); assay type: functional
[29] = system: Colletotrichum truncatum; assay: Fungicidal activity against Colletotrichum capsici infected chilli plant assessed as fruit length measured per plot at 0.025% applied as spray on day 10 post inoculation and twice every 20 days measured on day 155 post sowing in field conditions (reference value: 8 to 8.7 cm); assay type: functional
[30] = system: Colletotrichum truncatum; assay: Fungicidal activity against Colletotrichum capsici infected chilli plant assessed as fruit length measured per plot at 0.05% applied as spray on day 10 post inoculation and twice every 20 days measured on day 155 post sowing in field conditions (reference value: 8 to 8.7 cm); assay type: functional
[31] = system: Colletotrichum truncatum; assay: Fungicidal activity against Colletotrichum capsici infected chilli plant assessed as fruit yield measured per plot at 0.025% applied as spray on day 10 post inoculation and twice every 20 days measured on day 155 post sowing in field conditions (reference value: 8.25 to 9.3 kg); assay type: functional
[32] = system: Colletotrichum truncatum; assay: Fungicidal activity against Colletotrichum capsici infected chilli plant assessed as fruit yield measured per plot at 0.05% applied as spray on day 10 post inoculation and twice every 20 days measured on day 155 post sowing in field conditions (reference value: 8.25 to 9.3 kg); assay type: functional
[33] = system: Colletotrichum truncatum; assay: Fungicidal activity against Colletotrichum capsici infected chilli plant assessed as percent disease index at 0.025% applied as spray on day 10 post inoculation and twice every 20 days measured on day 155 post sowing in field conditions (reference value: 51 to 56.5%); assay type: functional
[34] = system: Colletotrichum truncatum; assay: Fungicidal activity against Colletotrichum capsici infected chilli plant assessed as percent disease index at 0.05% applied as spray on day 10 post inoculation and twice every 20 days measured on day 155 post sowing in field conditions (reference value: 51 to 56.5%); assay type: functional

SMILES: CC1COC(Cn2cncn2)(c2ccc(Oc3ccc(Cl)cc3)cc2Cl)O1 (stereo not drawn) [DIFENOCONAZOLE]
- Activity [1]: 15.6%
- Activity [2]: 12%
- EC50 [3]: 0.15 µg/mL (≈ 0.369 µM)
- Activity [4]: 0 ×10⁶ /ml
- Activity [5]: 0 ×10⁶ /ml
- Activity [6]: 0.37 ×10⁶ /ml
- Activity [7]: 1.02 ×10⁶ /ml
- Activity [8]: 2.25 ×10⁶ /ml
- Activity [9]: 3.25 ×10⁶ /ml
- CFU [10]: 0
- CFU [11]: 0
- CFU [12]: 7.8
- inhibition at 0.1 µg/mL [13]: 40%
- Activity [14]: 0 mg
- Activity [15]: 0 mg
- Activity [16]: 243 mg
- Activity [17]: 350 mg
- Activity [18]: 465 mg
- Activity [19]: 9 mm
- Activity [20]: 9 mm
- Activity [21]: 27.4 mm
- Activity [22]: 18.5 mm
- Activity [23]: 48.5 mm
- Activity [24]: 7 cm
- Activity [25]: 7.5 cm
- Activity [26]: Toxic
- Crop_yield [27]: 140.5 g
- PDI [28]: 34.5%
- Activity [29]: 8.2 cm
- Activity [30]: 9.2 cm
- Crop_yield [31]: 9.1 kg
- Crop_yield [32]: 12.34 kg
- PDI [33]: 33%
- PDI [34]: 22%

SMILES: CCCC1COC(Cn2cncn2)(c2ccc(Cl)cc2Cl)O1 (stereo not drawn) [PROPICONAZOLE]
- Activity [1]: 12%
- Activity [2]: 9.2%
- EC50 [3]: 0.19 µg/mL (≈ 0.555 µM)
- Activity [4]: 0 ×10⁶ /ml
- Activity [5]: 0 ×10⁶ /ml
- Activity [6]: 0 ×10⁶ /ml
- Activity [7]: 0.33 ×10⁶ /ml
- Activity [8]: 1.3 ×10⁶ /ml
- Activity [9]: 2.83 ×10⁶ /ml
- CFU [10]: 0
- CFU [11]: 0
- CFU [12]: 3.3
- inhibition at 0.1 µg/mL [13]: 62%
- Activity [14]: 0 mg
- Activity [15]: 0 mg
- Activity [16]: 129 mg
- Activity [17]: 240 mg
- Activity [18]: 410 mg
- Activity [19]: 9 mm
- Activity [20]: 9 mm
- Activity [21]: 12.61 mm
- Activity [22]: 9 mm
- Activity [23]: 39.2 mm
- Activity [24]: 7.1 cm
- Activity [25]: 7.8 cm
- Activity [26]: Non-toxic
- Crop_yield [27]: 130 g
- PDI [28]: 33%
- Activity [29]: 8.5 cm
- Activity [30]: 9.2 cm
- Crop_yield [31]: 9.86 kg
- Crop_yield [32]: 13.1 kg
- PDI [33]: 30.6%
- PDI [34]: 20.5%
